Data published in article PMC5459956 (International Journal of Nanomedicine, 2017).

Key:
[1] = test system: ROS generation in MV-4–11 cells; test: Reactive oxygen species assay; type: cell-based; conditions: 4 h, Cu(DDC)2 200 µM, menadione 50 µM, versus cell-free condition
MV-4–11 cells = test: MV-4–11 cytotoxicity assay; type: cell-based; conditions: read-out: 72-h IC50, 72 h exposure, PrestoBlue
[2] = cited from earlier work
[3] = test system: healthy bronchial epithelial cells; conditions: in vitro; cited from earlier work

Compound	ROS generation [1]	IC50 (MV-4–11 cells) [nM]	solubility (slightly soluble precipitate) [2] [µg/mL]	effect in healthy bronchial epithelial cells [3]
CC1=CC(=O)c2ccccc2C1=O [Menadione, menadione]	ROS formation in the cells was evident	–	–	–
CCN(CC)C(=S)[S-].CCN(CC)C(=S)[S-].[Cu+2] [Cu(DDC)2, Copper diethyldithiocarbamate]	–	~110	< 100	did not have any effect
